± gives the uncertainty stated by the source.
Assay: xn = mol fraction of the nth substance listed

CCCCCCCCCCCCCC[P+](CCCCCC)(CCCCCC)CCCCCC.c1c[n-]nn1 + CCCCCCCCCCCCCC[P+](CCCCCC)(CCCCCC)CCCCCC.O=S(=O)([N-]S(=O)(=O)C(F)(F)F)C(F)(F)F
viscosity [mPa·s], 100 kPa
Conditions | x1 = 0.098 | x1 = 0.201 | x1 = 0.3 | x1 = 0.401 | x1 = 0.5 | x1 = 0.599 | x1 = 0.7 | x1 = 0.797 | x1 = 0.901
293.15 K | 425 ± 54 | 473 ± 60 | 495 ± 63 | 465 ± 59 | 502 ± 64 | 539 ± 69 | 533 ± 69 | 547 ± 70 | 553 ± 71
298.15 K | 313 ± 39 | 348 ± 44 | 362 ± 46 | 338 ± 43 | 363 ± 46 | 390 ± 49 | 385 ± 49 | 393 ± 50 | 397 ± 50
303.15 K | 236 ± 29 | 261 ± 32 | 270 ± 34 | 251 ± 31 | 270 ± 34 | 288 ± 36 | 284 ± 35 | 289 ± 36 | 291 ± 36
308.15 K | 181 ± 22 | 200 ± 25 | 207 ± 26 | 191 ± 24 | 204 ± 25 | 218 ± 27 | 214 ± 26 | 217 ± 27 | 220 ± 27
313.15 K | 142 ± 17 | 156 ± 19 | 160 ± 20 | 148 ± 18 | 158 ± 19 | 168 ± 21 | 165 ± 20 | 167 ± 20 | 168 ± 21
318.15 K | 112 ± 14 | 124 ± 15 | 127 ± 15 | 117 ± 14 | 124 ± 15 | 132 ± 16 | 129 ± 16 | 131 ± 16 | 132 ± 16
323.15 K | 91 ± 11 | 100 ± 12 | 102 ± 12 | 94 ± 11 | 100 ± 12 | 106 ± 13 | 103 ± 12 | 104 ± 13 | 106 ± 13

ClCCCCCl + CC(C)CO
viscosity [mPa·s], 101 kPa
Conditions | x1 = 0.0994 | x1 = 0.1958 | x1 = 0.2938 | x1 = 0.4026 | x1 = 0.5 | x1 = 0.6041 | x1 = 0.7031 | x1 = 0.801 | x1 = 0.8984
298.15 K | 2.524 ± 0.023 | 2.027 ± 0.019 | 1.715 ± 0.016 | 1.501 ± 0.014 | 1.371 ± 0.013 | 1.285 ± 0.012 | 1.236 ± 0.012 | 1.208 ± 0.011 | 1.215 ± 0.012
313.15 K | 1.648 ± 0.018 | 1.381 ± 0.014 | 1.207 ± 0.012 | 1.097 ± 0.011 | 1.02 ± 0.01 | 0.977 ± 0.01 | 0.9567 ± 0.0094 | 0.9491 ± 0.0093 | 0.9661 ± 0.0096

C1C[C@@H]2[C@H]3CC[C@H](C3)[C@@H]2C1 + CC(C)CO
viscosity [mPa·s], 100 kPa
Conditions | x1 = 0.1002 | x1 = 0.2 | x1 = 0.3002 | x1 = 0.4003 | x1 = 0.4998 | x1 = 0.6003 | x1 = 0.7002 | x1 = 0.7994 | x1 = 0.8979
293.15 K | 3.668 ± 0.079 | 3.397 ± 0.073 | 3.217 ± 0.069 | 3.04 ± 0.066 | 2.883 ± 0.063 | 2.814 ± 0.062 | 2.769 ± 0.061 | 2.78 ± 0.062 | 2.848 ± 0.064
298.15 K | 3.135 ± 0.067 | 2.923 ± 0.063 | 2.772 ± 0.06 | 2.644 ± 0.057 | 2.541 ± 0.055 | 2.489 ± 0.055 | 2.47 ± 0.054 | 2.493 ± 0.055 | 2.563 ± 0.057
303.15 K | 2.692 ± 0.058 | 2.526 ± 0.054 | 2.408 ± 0.052 | 2.318 ± 0.05 | 2.247 ± 0.049 | 2.219 ± 0.049 | 2.219 ± 0.049 | 2.249 ± 0.05 | 2.323 ± 0.052
308.15 K | 2.325 ± 0.05 | 2.196 ± 0.047 | 2.108 ± 0.046 | 2.044 ± 0.044 | 1.998 ± 0.044 | 1.99 ± 0.044 | 2.003 ± 0.044 | 2.037 ± 0.045 | 2.113 ± 0.047
313.15 K | 2.02 ± 0.043 | 1.92 ± 0.041 | 1.856 ± 0.04 | 1.814 ± 0.039 | 1.787 ± 0.039 | 1.79 ± 0.039 | 1.814 ± 0.04 | 1.854 ± 0.041 | 1.929 ± 0.043
318.15 K | 1.764 ± 0.038 | 1.689 ± 0.036 | 1.645 ± 0.036 | 1.616 ± 0.035 | 1.607 ± 0.035 | 1.618 ± 0.035 | 1.646 ± 0.036 | 1.695 ± 0.038 | 1.77 ± 0.04
323.15 K | 1.551 ± 0.033 | 1.494 ± 0.032 | 1.465 ± 0.032 | 1.448 ± 0.031 | 1.452 ± 0.032 | 1.471 ± 0.032 | 1.507 ± 0.033 | 1.555 ± 0.035 | 1.627 ± 0.036

CCC(=O)O + O=[N+]([O-])c1ccccc1
viscosity [mPa·s], 101 kPa
Conditions | x1 = 0.1311 | x1 = 0.2535 | x1 = 0.3679 | x1 = 0.4752 | x1 = 0.5759 | x1 = 0.6708 | x1 = 0.7601 | x1 = 0.8445 | x1 = 0.9244
298.15 K | 1.763 ± 0.013 | 1.711 ± 0.013 | 1.663 ± 0.013 | 1.612 ± 0.012 | 1.551 ± 0.012 | 1.478 ± 0.011 | 1.392 ± 0.011 | 1.291 ± 0.01 | 1.175 ± 0.0092
308.15 K | 1.469 ± 0.011 | 1.452 ± 0.011 | 1.428 ± 0.011 | 1.394 ± 0.011 | 1.346 ± 0.01 | 1.285 ± 0.01 | 1.21 ± 0.0095 | 1.121 ± 0.0088 | 1.019 ± 0.0081
318.15 K | 1.35 ± 0.01 | 1.42 ± 0.011 | 1.421 ± 0.011 | 1.376 ± 0.011 | 1.301 ± 0.01 | 1.207 ± 0.0095 | 1.106 ± 0.0087 | 1.002 ± 0.008 | 0.9012 ± 0.0072

Nc1cccc(Cl)c1 + CCCCOCCO
303.15 K, 101 kPa
Conditions | viscosity [mPa·s]
x1 = 0.1347 | 2.958 ± 0.75
x1 = 0.2158 | 3.022 ± 0.77
x1 = 0.3353 | 3.099 ± 0.79
x1 = 0.4394 | 3.15 ± 0.8
x1 = 0.5555 | 3.192 ± 0.81
x1 = 0.6554 | 3.214 ± 0.82
x1 = 0.7157 | 3.226 ± 0.82
x1 = 0.8263 | 3.239 ± 0.82
x1 = 0.912 | 3.242 ± 0.83

CCC(=O)O + CO
308.15 K, 101 kPa
Conditions | viscosity [mPa·s]
x1 = 0.0467 | 0.5336 ± 0.052
x1 = 0.0975 | 0.5843 ± 0.052
x1 = 0.157 | 0.6175 ± 0.052
x1 = 0.2234 | 0.6789 ± 0.052
x1 = 0.3021 | 0.7413 ± 0.052
x1 = 0.3923 | 0.8094 ± 0.052
x1 = 0.5024 | 0.9055 ± 0.052
x1 = 0.6344 | 0.9763 ± 0.052
x1 = 0.7111 | 1.021 ± 0.051
x1 = 0.7964 | 0.9955 ± 0.051
x1 = 0.8919 | 0.9369 ± 0.051

O=[N+]([O-])[O-].O=[N+]([O-])[O-].[Ni+2] + O
Conditions | viscosity [mPa·s]
322.46 K, 100 kPa, x1 = 0.03889 | 1.225 ± 0.023

OC[C@@H](O)[C@@H](O)CO + O
viscosity [mPa·s], 101.3 kPa
Conditions | x1 = 0.003586 | x1 = 0.007154 | x1 = 0.01069 | x1 = 0.01421 | x1 = 0.0177 | x1 = 0.02631 | x1 = 0.03478 | x1 = 0.0431 | x1 = 0.05128
293.15 K | – | – | – | 1.25 ± 0.08 | – | 1.53 ± 0.09 | 1.78 ± 0.11 | 2.04 ± 0.12 | 2.32 ± 0.14
303.15 K | 0.84 ± 0.05 | 0.89 ± 0.05 | 0.95 ± 0.06 | 0.99 ± 0.06 | 1.07 ± 0.06 | 1.18 ± 0.07 | 1.36 ± 0.08 | 1.54 ± 0.09 | 1.73 ± 0.1
313.15 K | – | 0.71 ± 0.04 | 0.76 ± 0.05 | 0.79 ± 0.05 | 0.85 ± 0.05 | 0.94 ± 0.06 | 1.05 ± 0.06 | 1.18 ± 0.07 | 1.33 ± 0.08
323.15 K | 0.57 ± 0.03 | 0.6 ± 0.04 | 0.64 ± 0.04 | 0.66 ± 0.04 | 0.71 ± 0.04 | 0.77 ± 0.05 | 0.87 ± 0.05 | 0.95 ± 0.06 | 1.06 ± 0.06

CNN + O
293.15 K, 101.3 kPa
Conditions | viscosity [mPa·s]
x1 = 0.0514 | 1.53 ± 0.05
x1 = 0.1003 | 2.35 ± 0.07
x1 = 0.1615 | 3.54 ± 0.11
x1 = 0.2017 | 4.51 ± 0.14
x1 = 0.2563 | 5.58 ± 0.18
x1 = 0.303 | 6 ± 0.19
x1 = 0.3482 | 5.9 ± 0.19
x1 = 0.4048 | 5.5 ± 0.18
x1 = 0.4408 | 4.91 ± 0.16
x1 = 0.5008 | 4.07 ± 0.13
x1 = 0.6034 | 2.98 ± 0.09
x1 = 0.6873 | 2.16 ± 0.07
x1 = 0.8036 | 1.56 ± 0.05
x1 = 0.8917 | 1.22 ± 0.04

Nc1cccc(Cl)c1 + Clc1ccccc1
Conditions | viscosity [mPa·s]
308.15 K, 100 kPa, x1 = 0.3821 | 2.145 ± 0.1

CCCCCCCN + Cc1ccccc1
303.15 K, 101 kPa
Conditions | viscosity [mPa·s]
x2 = 0.1243 | 0.8161 ± 0.0069
x2 = 0.2792 | 0.7217 ± 0.0062
x2 = 0.4418 | 0.6387 ± 0.0055
x2 = 0.5561 | 0.5933 ± 0.0051
x2 = 0.5995 | 0.58 ± 0.005
x2 = 0.7025 | 0.5493 ± 0.0048
x2 = 0.7845 | 0.5305 ± 0.0046
x2 = 0.875 | 0.5139 ± 0.0045
x2 = 0.939 | 0.5173 ± 0.0045
